Literature values in article PMC10026531 (Clinical Pharmacology in Drug Development, 2022).

Details: in vivo, po

share of the parent drug exposure in plasma: 40%
SMILES: O=c1ccc2ccc(OCCCCN3CCN(c4cccc(Cl)c4Cl)CC3)cc2[nH]1 [dehydro‐aripiprazole]
